Tests used:
[1] = biological target: T1, human 12-lipoxygenase (Homo sapiens, UniProt P18054); test: human 12-lipoxygenase inhibition (12hLO) assay, absorbance at 234 nm; format: biochemical
T1 sequence (P18054 1-663): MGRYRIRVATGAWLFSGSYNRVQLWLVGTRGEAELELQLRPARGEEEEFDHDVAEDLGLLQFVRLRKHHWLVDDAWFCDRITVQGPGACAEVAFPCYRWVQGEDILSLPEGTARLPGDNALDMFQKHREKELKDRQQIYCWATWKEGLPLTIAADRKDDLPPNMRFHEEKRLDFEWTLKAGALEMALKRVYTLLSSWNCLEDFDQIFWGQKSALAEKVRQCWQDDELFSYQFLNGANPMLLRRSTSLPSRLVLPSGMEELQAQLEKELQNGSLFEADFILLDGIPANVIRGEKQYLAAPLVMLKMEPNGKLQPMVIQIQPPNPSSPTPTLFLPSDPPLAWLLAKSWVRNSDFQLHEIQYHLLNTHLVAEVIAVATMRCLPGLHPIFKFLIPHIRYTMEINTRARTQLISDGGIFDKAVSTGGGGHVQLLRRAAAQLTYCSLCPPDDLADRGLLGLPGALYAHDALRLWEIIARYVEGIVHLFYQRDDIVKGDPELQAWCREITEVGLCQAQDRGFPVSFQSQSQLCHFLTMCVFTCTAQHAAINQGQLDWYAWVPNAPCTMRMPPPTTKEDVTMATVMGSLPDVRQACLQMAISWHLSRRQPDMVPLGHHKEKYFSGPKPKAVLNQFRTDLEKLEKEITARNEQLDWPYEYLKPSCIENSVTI

[2] = test system: human platelets; test: dense granule secretion (ATP release) in washed platelets; format: cell-based; conditions: induced by thrombin, PAR1-AP, PAR4-AP, ADP, arachidonic acid, collagen; FIG. 3
Procedure: (§1) Human platelets were obtained from healthy volunteers from within the Thomas Jefferson University community and the Philadelphia area. These studies were approved by the Thomas Jefferson University Institutional Review Board. Informed consent was obtained from all donors before blood draw. Blood was centrifuged at 200 g for 15 min at room temperature. Platelet-rich plasma was transferred into a conical tube containing a 10% acid citrate dextrose solution (39 mM citric acid, 75 mM sodium citrate, and 135 mM glucose, pH 7.4) and centrifuged at 2000 g for 15 min at room temperature. Platelets were resuspended in Tyrode's buffer (12 mM NaHCO3, 127 mM NaCl, 5 mM KCl, 0.5 mM NaH2PO4, 1 mM MgCl2, 5 mM glucose, and 10 mM HEPES), and the final platelet concentration was adjusted as indicated after counting using a Coulter counter (Beckman Coulter, Fullerton, Calif.). Reported results are the data obtained using platelets from at least three different subjects.
Washed platelets were obtained as described in Example 10. […] After addition of 5 μl of Chrono-lume reagent (Chrono-log Corp., Havertown, Pa.), ATP release was measured in response to stimulation by the agonists thrombin, PAR1-AP, PAR4-AP, ADP, arachidonic acid, and collagen using a Lumi-aggregometer Model 700D (Chrono-log Corp., Havertown, Pa.) at 37° C. with stirring at 1100 rpm. […]

[3] = test system: integrin αIIbβ3 in human platelets; test: activation of integrin αIIbβ3, PAC1 binding by flow cytometry; format: cell-based; conditions: vs agonists alone (thrombin, PAR1-AP, PAR4-AP, ADP); FIG. 5
Procedure: as §1
Washed platelets were obtained as described in Example 10. Flow cytometry was used to measure the activation of integrin αIIbβ3. Specifically, PAC1 (an antibody which only binds to αIIbβ3 when the protein is in its active conformation) binding was used to selectively detect the conformational activation of αIIbβ3. […] The fluorescence intensity of 10,000 platelets was immediately measured using a C6 Accuri flow cytometer. […]

[4] = biological target: T2, recombinant human cPLA2 (Homo sapiens, UniProt P47712); test: cPLA2 enzymatic activity assay; format: biochemical; conditions: 50 μM, 5 min of incubation; FIG. 8
T2 sequence (P47712 1-749): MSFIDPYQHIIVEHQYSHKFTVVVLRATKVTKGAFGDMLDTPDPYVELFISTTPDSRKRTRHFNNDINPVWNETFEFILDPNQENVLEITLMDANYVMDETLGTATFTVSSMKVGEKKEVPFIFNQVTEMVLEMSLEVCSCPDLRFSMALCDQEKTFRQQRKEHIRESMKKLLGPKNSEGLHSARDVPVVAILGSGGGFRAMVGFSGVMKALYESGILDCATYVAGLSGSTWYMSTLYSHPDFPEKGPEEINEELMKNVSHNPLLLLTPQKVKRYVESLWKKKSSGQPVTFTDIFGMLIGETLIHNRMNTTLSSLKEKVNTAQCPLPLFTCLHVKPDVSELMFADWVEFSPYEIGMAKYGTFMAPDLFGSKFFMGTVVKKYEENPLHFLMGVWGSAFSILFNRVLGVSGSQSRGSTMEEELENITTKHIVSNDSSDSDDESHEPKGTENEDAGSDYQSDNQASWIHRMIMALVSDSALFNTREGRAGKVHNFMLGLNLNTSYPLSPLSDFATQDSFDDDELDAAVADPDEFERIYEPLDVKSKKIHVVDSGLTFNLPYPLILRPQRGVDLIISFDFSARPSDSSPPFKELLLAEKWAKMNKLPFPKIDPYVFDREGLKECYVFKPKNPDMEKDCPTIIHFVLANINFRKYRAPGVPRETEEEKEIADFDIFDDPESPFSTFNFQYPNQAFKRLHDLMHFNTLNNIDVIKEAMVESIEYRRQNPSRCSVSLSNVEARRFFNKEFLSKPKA
Procedure: A., et al., Biochemistry, 2011, 50: 1731-1738 with the following differences. The inhibitors in solution in DMSO were added at a final concentration of 50 μM right before the recombinant enzyme was added to initiate the reaction. After 5 min of incubation, the products of reaction were analyzed, and the results depicted in FIG. 8.

## CCC(=O)NC(c1cccs1)c1cc([N+](=O)[O-])c2cccnc2c1O (centres unmarked) [Compound 1, N-((8-hydroxy-5-nitroquinolin-7-yl)(thiophen-2-yl)methyl)propionamide]
[1]
  selectivity for inhibition of human 12-lipoxygenase as compared with human 5-lipoxygenase, 15-lipoxygenase-1 and 15-lipoxygenase-2: exhibited selectivity
[1]; 12hLO Inhibition, Table 1, read-out: IC50 (μM) [± SD μM]
  IC50: 0.8 µM
[2]
  ATP secretion (dense granule secretion): substantially complete blockage of ATP secretion
[3]
  binding of PAC1 on the surface of the platelets: decreased binding of PAC1
[4]
  inhibition of cPLA2: did not inhibit cPLA2
